According to patent EP2684879A1, “Substituted mesoionic compounds for combating animal pests” (priority 2012, dated 2014):

Legend:
Type in all cases: in vivo
[1] = system: Green Peach Aphid (Myzus persicae, mixed life stages); test: Green peach aphid, sprayed infested bell pepper plants; details: 120 h, test concentration of 1415 ppm, after 5 days, relative to mortality on untreated control plants
Source text: The active compounds were formulated in cyclohexanone as a 10,000 ppm solution supplied in tubes. The tubes were inserted into an automated electrostatic sprayer equipped with an atomizing nozzle and they served as stock solutions for which lower dilutions were made in 50% acetone:50% water (v/v). A nonionic surfactant (Kinetic®) was included in the solution at a volume of 0.01 % (v/v). Bell pepper plants at the first true-leaf stage were infested prior to treatment by placing heavily infested leaves from the main colony on top of the treatment plants. Aphids were allowed to transfer overnight to accomplish an infestation of 30-50 aphids per plant and the host leaves were removed. The infested plants were then sprayed by an automated electrostatic plant sprayer equipped with an atomizing spray nozzle. The plants were dried in the sprayer fume hood, removed, and then maintained in a growth room under fluorescent lighting in a 24-hr photoperiod at about 25°C and about 20-40% relative humidity. Aphid mortality on the treated plants, relative to mortality on untreated control plants, was determined after 5 days.

[2] = system: Southern Armyworm (Spodoptera eridania, 2nd instar larvae); test: Southern armyworm, sprayed lima bean plants; details: 96 h, test concentration of 500 ppm, 4 days after treatment, in comparison with untreated controls
Experimental: The active compounds were formulated in cyclohexanone as a 10, 0000 ppm solution supplied in 1.3 ml ABgene® tubes. These tubes were inserted into an automated electrostatic sprayer equipped with an atomizing nozzle and they served as stock solutions for which lower dilutions were made in 50% acetone: 50% water (v/v). A nonionic surfactant (Kinetic®) was included in the solution at a volume of 0.01% (v/v). Lima bean plants (variety Sieva) were grown 2 plants to a pot and selected for treatment at the 1st true leaf stage. Test solutions were sprayed onto the foliage by an automated electrostatic plant sprayer equipped with an atomizing spray nozzle. The plants were dried in the sprayer fume hood and then removed from the sprayer. Each pot was placed into perforated plastic bags with a zip closure. Ten to 11 armyworm larvae were placed into the bag and the bags zipped closed. Test plants were maintained in a growth room at 25°C and 20-40% relative humidity for 4 days, avoiding direct exposure to fluorescent light (24 hour photoperiod) to prevent trapping of heat inside the bags. Mortality and reduced feeding were assessed 4 days after treatment, compared to untreated control plants.

[3] = system: Rice brown plant hopper (Nilaparvata lugens); test: Rice brown plant hopper, sprayed potted rice seedlings; details: test concentration of 500 ppm, after 72 hours, in comparison with untreated controls
Experimental: Rice seedlings were cleaned and washed 24 hours before spraying. The active compounds were formulated in 50:50 acetone:water (vol:vol) and 0.1 % vol/vol surfactant (EL 620) was added. Potted rice seedlings were sprayed with 5 ml test solution, air dried, placed in cages and inoculated with 10 adults. Treated rice plants were kept at about 28-29°C and relative humidity of about 50-60%. Percent mortality was recorded after 72 hours.

[4] = system: boll weevil (Anthonomus grandis); test: Boll weevil control, insect diet in 24-well microtiter plates; details: 120 h, test concentration of 1415 ppm, egg and larval mortality visually assessed after 5 days
Experimental: For evaluating control of boll weevil (Anthonomus grandis) the test unit consists of 24-well-microtiter plates containing an insect diet and 20-30 A. grandis eggs. The compounds were formulated using a solution containing 75% v/v water and 25% v/v DMSO. Different concentrations of formulated compounds were sprayed onto the insect diet at 20 µl, using a custom built micro atomizer, at two replications. After application, microtiter plates were incubated at about 23 ± 1°C and about 50 ± 5 % relative humidity for 5 days. Egg and larval mortality was then visually assessed.

[5] = system: Mediterranean fruitfly (Ceratitis capitata); test: Mediterranean fruitfly control, insect diet in microtiter plates; details: 120 h, test concentration of 1415 ppm, egg and larval mortality visually assessed after 5 days
Experimental: (§1) For evaluating control of Mediterranean fruitfly (Ceratitis capitata) the test unit consisted of microtiter plates containing an insect diet and 50-80 C. capitata eggs. The compounds were formulated using a solution containing 75% v/v water and 25% v/v DMSO. Different concentrations of formulated compounds were sprayed onto the insect diet at 5 µl, using a custom built micro atomizer, at two replications. After application, microtiter plates were incubated at about 28 ± 1°C and about 80 ± 5 % relative humidity for 5 days. Egg and larval mortality was then visually assessed.

[6] = system: tobacco budworm (Heliothis virescens); test: Tobacco budworm control, insect diet in 96-well microtiter plates; details: 120 h
Experimental: as §1, with “of tobacco budworm (Heliothis virescens)” for “of Mediterranean fruitfly (Ceratitis capitata)”, “unit consists” for “unit consisted”, “of 96-well-microtiter” for “of microtiter”, “and 15-25 H. virescens” for “and 50-80 C. capitata”, “at 10” for “at 5”

[7] = system: Orchid thrips (Dichromothrips corbetti); test: Orchid thrips, floral-immersion technique; details: 96 h, test concentration of 100 ppm, after 4 days, in comparison with untreated controls
Experimental: Dichromothrips corbetti adults used for bioassay were obtained from a colony maintained continuously under laboratory conditions. For testing purposes, the test compound was diluted to a concentration of 300 ppm (wt compound: vol diluent) in a 1:1 mixture of acetone:water (vol:vol), plus 0.01 % vol/vol Kinetic® surfactant. Thrips potency of each compound was evaluated by using a floral-immersion technique. Plastic petri dishes were used as test arenas. All petals of individual, intact orchid flowers were dipped into treatment solution and allowed to dry. Treated flowers were placed into individual petri dishes along with 10 - 15 adult thrips. The petri dishes were then covered with lids. All test arenas were held under continuous light and a temperature of about 28°C for duration of the assay. After 4 days, the numbers of live thrips were counted on each flower, and along inner walls of each petri dish. The level of thrips mortality was extrapolated from pre-treatment thrips numbers.

[8] = system: vetch aphid (Megoura viciae); test: Vetch aphid control, broad bean leaf disks, contact or systemic; details: foliar, 120 h, test concentration of 1415 ppm, aphid mortality visually assessed after 5 days

Structure (SMILES)	mortality at 1415 ppm [1]	mortality at 500 ppm [2]	other results
CC(C)S(=NC(=O)c1cccc(-c2c([O-])[n+](Cc3ccc(Cl)nc3)c3ccccn3c2=O)c1)C(C)C [Compound C-5]	≥ 75%	≥ 75%	
CC(C)S(=NC(=O)c1cccc(-c2cccc(-c3c([O-])[n+](Cc4ccc(Cl)nc4)c4ccccn4c3=O)c2)c1)C(C)C [Compound C-13]	≥ 75%		mortality at 500 ppm [3]: ≥ 75%
CC(C)S(=NC(=O)c1ccc(-c2cccc(-c3c([O-])[n+](Cc4ccc(Cl)nc4)c4ccccn4c3=O)c2)cc1)C(C)C [Compound C-8]	≥ 75%	≥ 75%	
CCS(CC)=NC(=O)c1cccc(-c2cc(-c3c([O-])[n+](Cc4cnc(Cl)s4)c4c(C)cccn4c3=O)ccc2Cl)c1 [Compound C-10]	≥ 75%		
CCS(CC)=NC(=O)c1ccc(-c2cccc(-c3c([O-])[n+](Cc4cnc(Cl)s4)c4c(C)cccn4c3=O)c2)cc1 [Compound C-1]	≥ 75%	≥ 75%	mortality at 1415 ppm [4]: ≥ 75%; mortality at 1415 ppm [5]: ≥ 75%; mortality at 1415 ppm [6]: ≥ 75%; mortality at 100 ppm [7]: ≥ 75%
CCS(=NC(=O)c1cccc(-c2cccc(-c3c([O-])[n+](Cc4ccc(Cl)nc4)c4ccccn4c3=O)c2)c1)C1CC1 (centres unmarked) [Compound C-12]	≥ 75%		
CCS(CC)=NC(=O)c1cccc(-c2cccc(-c3c([O-])[n+](Cc4ccc(Cl)nc4)c4ccccn4c3=O)c2)c1 [Compound C-11]	≥ 75%		
CCS(CC)=NC(=O)c1cccc(-c2c([O-])[n+](Cc3ccc(Cl)nc3)c3ccccn3c2=O)c1 [Compound C-4, 1-[(6-chloro-3-pyridyl)methyl]-3-[3-[(diethyl-λ4-sulfanylidene)carbamoyl]phenyl]-4-oxo-pyrido[1,2-a]pyrimidin-1-ium-2-olate]		≥ 75%	
CCS(CC)=NC(=O)c1cccc(-c2cc(-c3c([O-])[n+](Cc4ccc(Cl)nc4)c4ccccn4c3=O)ccc2OC)c1 [Compound C-9]	≥ 75%		
CCS(=NC(=O)c1ccc(-c2cccc(-c3c([O-])[n+](Cc4ccc(Cl)nc4)c4ccccn4c3=O)c2)cc1)C1CC1 (centres unmarked) [Compound C-7]	≥ 75%	≥ 75%	mortality at 1415 ppm [8]: ≥ 75%
